Where no end group is shown, it is not given here. [ ]: non-standard residue; d: D form. Hyp = O=C(O)[C@@H]1C[C@@H](O)CN1
How the values were obtained:
Assay type in all cases: cell-based
human dermal fibroblasts [1] = assay: Sircol collagen assay, collagen synthesis by dermal fibroblasts; conditions: 0.5 mg/ml peptide, three weeks stimulation
Procedure: (§1) The human cells used were obtained from tebu-bio GmbH, Offenbach, Germany. The chondrocytes (Cat. No. 402-05a) or dermal fibroblasts (Cat. No. 106-05a) were first sown in 12-well culture plates and cultured at 37° C., 5% CO2 in Ham's F12 medium, to which 10% fetal calf serum, 20 U/ml penicillin-streptomycin and 50 μg/ml ascorbic acid were added. On every other day, the culture medium was replaced by new culture medium until the cells had reached 80% confluence. […] To investigate the collagen metabolism, the amount of newly synthesized collagen was determined after stimulating the cells with 0.5 mg/ml BCP for three weeks. The synthesized collagen was isolated using the Sircol assay (Article No. 054S5000, 2019, tebu-bio, Offenbach, Germany, or Biocolor Ltd., UK) according to the manufacturer's instructions. In brief, the culture medium was initially discarded and the adherent cell layers were digested with 0.1 mg pepsin solution in 0.5 M acetic acid at 4° C. overnight. The cell suspensions were neutralized by adding 100 μl of an acid-neutralizing reagent. The synthesized collagen was then separated off by adding 200 μl of an isolation and concentration solution with vigorous shaking at 4° C. overnight. After centrifugation (12,000 rpm, 10 min) and discarding the supernatant, the isolated collagen was resuspended in 1 ml of Sircol dye solution. After 30 minutes of shaking and another centrifugation, the collagen pellet was covered with 750 μl of cold acidic solid washing reagent. After another centrifugation, the supernatant was again discarded and the enriched collagen was taken up in 250 μl of alkaline solution. In each case 200 μl of the sample solutions were used for photometric quantification of the synthesized collagen. The absorbance was measured at a wavelength of 492 nm. The amount of collagen synthesized in each case was determined on the basis of standardized collagen solutions.

human dermal fibroblasts [2] = assay: Blyscan glycosaminoglycan assay, proteoglycan synthesis by dermal fibroblasts; conditions: 0.5 mg/ml, two weeks stimulation; for increase in the synthesis of proteoglycans by dermal fibroblasts compared to untreated controls: hydroxylated peptides; for increase in collagen synthesis (in the proteoglycan assay, dermal fibroblasts): non-hydroxylated peptides
Procedure: The human cells used were obtained from tebu-bio GmbH, Offenbach, Germany. The chondrocytes (Cat. No. 402-05a) or dermal fibroblasts (Cat. No. 106-05a) were first sown in 12-well culture plates and cultured at 37° C., 5% CO2 in Ham's F12 medium, to which 10% fetal calf serum, 20 U/ml penicillin-streptomycin and 50 μg/ml ascorbic acid were added. On every other day, the culture medium was replaced by new culture medium until the cells had reached 80% confluence. […] The Blyscan glycosaminoglycan assay (Article No. 054B3000, 2019, tebu-bio, Offenbach, Germany, or Biocolor Ltd., UK) was used to determine proteoglycans. The biosynthesis of proteoglycans was determined after stimulating dermal fibroblasts for two weeks. According to the manufacturer's instructions, after discarding the culture medium, the cell layers were covered with 1 ml of papain extraction solution and incubated for three hours at 65° C. with vigorous shaking. The cell suspensions were then centrifuged (10,000 g, 10 min) and the supernatants were collected. After adding 1 ml of Blyscan dye solution and shaking (30 min), the supernatants were centrifuged again (12,000 rpm, 10 min) and then discarded. The isolated proteoglycan pellets were resuspended in 500 μl of dissociation solution. A photometric determination of the synthesized proteoglycan in 200 μl sample solution was carried out at a wavelength of 656 nm in comparison to untreated control experiments.

human chondrocytes [3] = assay: Sircol collagen assay, collagen synthesis by chondrocytes; conditions: 0.5 mg/ml peptide, three weeks stimulation
Procedure: as §1

human chondrocytes [4] = assay: Blyscan glycosaminoglycan assay, proteoglycan synthesis by chondrocytes; conditions: 0.5 mg/ml; for increase in the synthesis of proteoglycans by chondrocytes compared to untreated controls: non-hydroxylated peptides; for increase in collagen synthesis (in the proteoglycan assay, chondrocytes): hydroxylated peptides

Substance	increase in collagen synthesis by dermal fibroblasts compared to untreated controls (human dermal fibroblasts [1]) [%]	increase in the synthesis of proteoglycans by dermal fibroblasts compared to untreated controls (human dermal fibroblasts [2]) [%]	increase in collagen synthesis by chondrocytes compared to untreated controls (human chondrocytes [3]) [%]	increase in the synthesis of proteoglycans by chondrocytes compared to untreated controls (human chondrocytes [4]) [%]	increase in collagen synthesis (in the proteoglycan assay, dermal fibroblasts) (human dermal fibroblasts [2]) [%]	increase in collagen synthesis (in the proteoglycan assay, chondrocytes) (human chondrocytes [4]) [%]
Gly-Leu-4Hyp-Gly-Lys-Tyr-Gly-Val-His-Gly-Leu-Thr-Gly-Pro-Leu-Gly-Pro-4Hyp-Gly-Pro-Met-Gly-Ile-4Hyp-Gly-Trp-Lys-Gly-Phe-Val-Gly-Pro-Thr (GL[Hyp]GKYGVHGLTGPLGP[Hyp]GPMGI[Hyp]GWKGFVGPT) [SEQ ID No. 28, collagen peptide comprising 33 amino acids]	22	22				
Gly-Pro-4Hyp-Gly-Pro-Leu-Gly-Met-Lys-Gly-Leu-4Hyp-Gly-Val-Trp-Gly-Pro-Phe-Gly-Leu-4Hyp-Gly-Thr-Pro-Gly-Pro-His-Gly-Ile-Thr-Gly-Tyr-Lys-Gly-Val [SEQ ID No. 29]	21	21				
Gly-Ala-4Hyp-Gly-Lys-Asp-Gly-Val-Arg-Gly-Leu-Thr-Gly-4Hyp-Ile-Gly-4Hyp-4Hyp-Gly-4Hyp-Ala-Gly-Ala-4Hyp-Gly-Asp-Lys-Gly-Glu-Ala-Gly-4Hyp-Ser (GA[Hyp]GKDGVRGLTG[Hyp]IG[Hyp][Hyp]G[Hyp]AGA[Hyp]GDKGEAG[Hyp]S) [SEQ ID No. 25, collagen peptide comprising 33 amino acids]	27	23	19			
KGAPGADGPAGAPGTPGPQ [SEQ ID No. 15, collagen peptide comprising 19 amino acids]	23		31	6	18	
Gly-Leu-4Hyp-Gly-Lys-Met-Gly-Val-Phe-Gly-Leu-Thr-Gly-Pro-Ile-Gly-Pro-4Hyp-Gly-Pro-Trp-Gly-Val-4Hyp-Gly-His-Lys-Gly-Tyr-Leu-Gly-Pro-Thr (GL[Hyp]GKMGVFGLTGPIGP[Hyp]GPWGV[Hyp]GHKGYLGPT) [SEQ ID No. 27, collagen peptide comprising 33 amino acids]	27	26				
Gly-Pro-4Hyp-Gly-Pro-Val-Gly-Thr-Lys-Gly-Leu-4Hyp-Gly-Phe-Tyr-Gly-Pro-Leu-Gly-Ile-4Hyp-Gly-His-Pro-Gly-Pro-Trp-Gly-Met-Leu-Gly-Thr-Lys-Gly-Val [SEQ ID No. 30]	21	22				
Gly-Ala-4Hyp-Gly-Lys-Asp-Gly-Val-Arg-Gly-Leu-Thr-Gly-Pro-Ile-Gly-Pro-4Hyp-Gly-Pro-Ala-Gly-Ala (GA[Hyp]GKDGVRGLTGPIGP[Hyp]GPAGA) [SEQ ID No. 18, collagen peptide comprising 23 amino acids]	40	31	32			25
Gly-Ala-4Hyp-Gly-Lys-Asp-Gly-Val-Arg-Gly-Leu-Thr-Gly-Pro-Ile-Gly-Pro-4Hyp-Gly-Pro-Ala-Gly-Ala-4Hyp-Gly-Asp-Lys-Gly-Glu-Ala-Gly-Pro-Ser (GA[Hyp]GKDGVRGLTGPIGP[Hyp]GPAGA[Hyp]GDKGEAGPS) [SEQ ID No. 7, collagen peptide comprising 33 amino acids]	42	41	28			30
GAPGKDGVRGL [SEQ ID No. 11, collagen peptide comprising 11 amino acids]	19		16	28	18	
Lys-Gly-Ala-4Hyp-Gly-Ala-Asp-Gly-Pro-Ala-Gly-Ala-4Hyp-Gly-Thr-Pro-Gly-Pro-Gln (KGA[Hyp]GADGPAGA[Hyp]GTPGPQ) [SEQ ID No. 21, collagen peptide comprising 19 amino acids]	36	27	55			22
Gly-Ala-4Hyp-Gly-Lys-Asp-Gly-Val-Arg-Gly-Leu-Thr-Gly-Pro-Ile-Gly-Pro-4Hyp-Gly-Pro-Ala-Gly-Ala-4Hyp (GA[Hyp]GKDGVRGLTGPIGP[Hyp]GPAGA[Hyp]) [SEQ ID No. 8, collagen peptide comprising 24 amino acids]	37	23	24			20
His-His-His-His-His-His-Gly-Ala-4Hyp-Gly-Lys-Asp-Gly-Val-Arg-Gly-Leu-Thr-Gly-Pro-Ile-Gly-Pro-4Hyp-Gly-Pro-Ala-Gly-Ala-4Hyp-Gly-Asp-Lys-Gly-Glu-Ala-Gly-Pro-Ser (HHHHHHGA[Hyp]GKDGVRGLTGPIGP[Hyp]GPAGA[Hyp]GDKGEAGPS) [SEQ ID No. 26, collagen peptide comprising 39 amino acids]	12	6	12			
Gly-Ala-4Hyp-Gly-Lys-Asp-Gly-Val-Arg-Gly-Leu-Thr-Gly-Pro-Ile-Gly-Pro-4Hyp-Gly-Pro-Ala-Gly-Ala-4Hyp-Gly-Asp-Lys-Gly-Glu-Ala-Gly-Pro-Ser-Gly-Pro-Ala-Gly-Pro-Thr-Gly-Ala-Arg-Gly-Ala-4Hyp-Gly-Asp-Arg-Gly-Glu-4Hyp-Gly-Pro-4Hyp-Gly-Pro-Ala-Gly-Phe-Ala-Gly-Pro-4Hyp-Gly-Ala-Asp-Gly-Gln-4Hyp-Gly-Ala-Lys-Gly-Glu-Pro-Gly-Asp-Ala-Gly-Ala-Lys-Gly-Asp-Ala-Gly-Pro-Pro-Gly-Pro-Ala [SEQ ID No. 20]	37	29				15

From patent US20220073592A1, “SYNTHETIC AND RECOMBINANT COLLAGEN PEPTIDES HAVING BIOLOGICAL ACTIVITY” (GELITA AG, priority 2018, published 2022)
